Target: T1, human NTPDase8 (Homo sapiens, UniProt Q5MY95)
T1 sequence (Q5MY95 1-495): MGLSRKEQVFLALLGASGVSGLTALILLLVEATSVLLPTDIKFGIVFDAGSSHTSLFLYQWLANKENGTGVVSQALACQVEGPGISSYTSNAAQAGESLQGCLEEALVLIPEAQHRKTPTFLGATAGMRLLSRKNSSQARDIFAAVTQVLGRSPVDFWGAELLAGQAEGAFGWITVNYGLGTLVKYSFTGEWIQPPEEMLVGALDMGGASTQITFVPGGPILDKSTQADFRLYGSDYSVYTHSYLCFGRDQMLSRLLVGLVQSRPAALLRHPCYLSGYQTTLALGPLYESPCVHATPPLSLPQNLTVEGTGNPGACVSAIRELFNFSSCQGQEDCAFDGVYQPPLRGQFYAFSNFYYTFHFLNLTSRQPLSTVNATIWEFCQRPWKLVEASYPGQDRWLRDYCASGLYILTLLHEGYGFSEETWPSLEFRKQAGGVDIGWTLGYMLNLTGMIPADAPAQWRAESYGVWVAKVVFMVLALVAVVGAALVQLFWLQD
Test: Capillary electrophoresis assay for human NTPDase8
Assay type: biochemical
Conditions: ATP (100 μM) as substrate
Protocol: Inhibitory activity of the CD73 inhibitors 2 and 20 at human NTPDases 1, 2, 3, and 8 was investigated using ATP (100 μM) as a substrate according to previously published procedures.^24 ATP and 2 were co-incubated with recombinantly expressed human NTPDases at 37° C. for 30 min, and the enzymatic reaction was terminated by heating at 90° C. for 10 min. The amount of enzyme preparation was adjusted to ensure 10-20% of substrate conversion. The formed products were separated by capillary electrophoresis (CE) and individually quantitated by diode array detection (DAD) at a wavelength of 260 nm. For inhibition analysis, at least three independent experiments were performed each in triplicate. The inhibition of the enzyme activity was calculated in relation to the positive control without inhibitor and plotted by GraphPad Prism 8 software (GraphPad software, San Diego, CA, USA) (for results see Table 2 and Table 3).
Test compounds were investigated at a concentration of 50 μM, and 100 μM ATP substrate according to published procedures.^24 Recombinantly expressed human NTPDases were employed. The amount of enzyme preparation was adjusted to ensure 10-20% of substrate conversion. […] The inhibition of the enzyme activity was calculated in relation to the positive control without inhibitor and plotted in GraphPad Prism 8 software (GraphPad software, San Diego, CA, USA). […]

Row | Compound | IC50 [µM]
1 | CCCN(Cc1ccc(-c2cn(CCF)nn2)cc1)c1nc(Cl)nc2c1ncn2[C@@H]1O[C@H](COP(=O)(O)CP(=O)(O)O)C(O)C1O (some centres unmarked) [Compound 2] | > 50
2 | O=C(NCCCCCCNC(=O)c1ccc2c(c1)C1(OC2=O)c2ccc(O)cc2Oc2cc(O)ccc21)c1ccc(CNc2nc(Cl)nc3c2ncn3[C@@H]2O[C@H](COP(=O)(O)CP(=O)(O)O)[C@@H](O)[C@H]2O)cc1 [Compound 20, (((((2R,3S,4R,5R)-5-(2-chloro-6-((4-((6-(3′,6′-dihydroxy-3-oxo-3H-spiro[isobenzofuran-1,9′-xanthene]-6-carboxamido)-hexyl)carbamoyl)benzyl)amino)-9H-purin-9-yl)-3,4-dihydroxytetrahydrofuran-2-yl)methoxy)(hydroxy)phosphoryl)methyl)phosphonic acid] | < 50

— patent publication US20250382322A1, “DIAGNOSTICS FOR DETECTING ECTO-5'-NUCLEOTIDASE (CD73)” (EBERHARD KARLS UNIVERSITÄT TÜBINGEN, priority 2022, published 2025)
